Results as given in patent publication US11384075B2, “Quinolinone compounds” (Janssen Pharmaceutica NV, priority 2017, dated 2022).

Experiments:
[1] = target: T1, human FGFR3 wild type enzyme (cytoplasmic domain) (Homo sapiens, UniProt P22607); assay: FGFR3 wild type mobility shift assay (enzymatic assay); assay type: biochemical; settings: 75 μM ATP, 50 minutes at 30° C., Caliper EZ reader II
T1 construct: human FGFR3 wild type enzyme (cytoplasmic domain, from Carna Biosciences); purchased Carna Biosciences
T1 sequence (P22607 397-806 limits assumed): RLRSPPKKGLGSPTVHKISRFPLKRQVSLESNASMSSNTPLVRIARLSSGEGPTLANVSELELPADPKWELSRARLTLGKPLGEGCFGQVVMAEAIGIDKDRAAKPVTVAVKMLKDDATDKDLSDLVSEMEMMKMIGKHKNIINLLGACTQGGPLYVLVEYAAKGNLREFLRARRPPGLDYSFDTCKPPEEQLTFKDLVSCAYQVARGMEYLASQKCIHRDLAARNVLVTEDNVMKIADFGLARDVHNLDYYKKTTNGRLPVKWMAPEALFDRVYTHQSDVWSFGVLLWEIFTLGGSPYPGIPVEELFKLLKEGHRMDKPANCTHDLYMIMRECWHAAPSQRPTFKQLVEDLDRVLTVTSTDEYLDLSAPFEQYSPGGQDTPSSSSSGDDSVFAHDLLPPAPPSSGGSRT
Procedure, shortened: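 Cytoplasmic domain of human wild-type FGFR3 (0.04 ng/μL) with 75 μM ATP and 1 μM FL-peptide 30, pH 7.4 HEPES/MgCl2 buffer, 1% DMSO, 50 min at 30 °C, EDTA-stopped. Substrate-product conversion read by mobility shift. IC50, pIC50 and Hill slope from 10-point 4-fold dilutions starting at 10 μM.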

[2] = target: T2, human FGFR3 V555M enzyme (cytoplasmic domain carrying V555M mutation) (Homo sapiens, UniProt P22607, V555M); assay: FGFR3 V555M mobility shift assay (enzymatic assay); assay type: biochemical; settings: 30 μM ATP, 45 minutes at 30° C., Caliper EZ reader II
T2 construct: human FGFR3 V555M enzyme (cytoplasmic domain carrying V555M mutation, from Carna Biosciences); purchased Carna Biosciences
T2 sequence (P22607 397-806 V555M limits assumed): as the sequence (P22607 397-806 limits assumed) above, with V159M counted along it
Procedure, shortened: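 Cytoplasmic-domain FGFR3 V555M (0.04 ng/μL) with 30 μM ATP and 1 μM FL-peptide 30 in HEPES pH 7.4/MgCl2/Brij35/DTT, 1% DMSO, 45 min at 30 °C, EDTA-stopped. Mobility-shift read of substrate-product conversion; 10-point 4× dilution from 10 μM fitted for IC50/pIC50.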

[3] = target: T3, human FGFR3 V555L enzyme (cytoplasmic domain carrying V555L mutation) (Homo sapiens, UniProt P22607, V555L); assay: FGFR3 V555L mobility shift assay (enzymatic assay); assay type: biochemical; settings: 40 μM ATP, 50 minutes at 30° C., Caliper EZ reader II
T3 construct: human FGFR3 V555L enzyme (cytoplasmic domain carrying V555L mutation, from Carna Biosciences); purchased Carna Biosciences
T3 sequence (P22607 397-806 V555L limits assumed): as the sequence (P22607 397-806 limits assumed) above, with V159L counted along it
Procedure: FGFR3 V555L Mobility Shift Assay (Enzymatic Assay)
In a final reaction volume of 25 μL, 0.04 ng/μL human FGFR3 V555L enzyme (cytoplasmic domain carrying V555L mutation, from Carna Biosciences) was incubated with 40 μM ATP, 1 μM FL-peptide 30 substrate and 250 nL of testing compound (1% DMSO final) in assay buffer (100 mM HEPES pH 7.4, 10 mM MgCl2, 0.003% Brij35, 1 mM DTT). After incubation for 50 minutes at 30° C. the reaction was stopped with 10 μL of 0.5M EDTA pH 8.0, and then 25 μL of reaction mixture was transferred to reading plate and measured on Caliper EZ reader II. The substrate-product conversion rate was used as raw data for normalization and concentration-response curve (10 dose points with 4× serial dilution, starting with 10 μM) was plotted using Prism to calculate IC50 (M), pIC50 (−log IC50) and HillSlope value.

[4] = tested on: NIH/3T3 cells transfected with the same control vector; assay: NIH/3T3 mock cell proliferation assay (counter assay, general toxicity); assay type: cell-based; settings: Mus musculus, NIH3T3, 72 h, 72-hr incubation, CellTiter Glo, starting with 30 μM; counter assay for general toxicity; read-out: NIH/3T3 MOCK CTG (IC50)
Procedure, shortened: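 Control-vector NIH/3T3 cells, 30,000/well in DMEM with 10% FBS, exposed 72 h at 37 °C to compound (9 points, 3-fold from 30 μM, 0.3% DMSO). CellTiter-Glo luminescence normalized to survival %; IC50, pIC50 and Hill slope from concentration-response fit.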

[5] = target: T4, NIH/3T3 cells overexpressing FGFR3 WT-TACC3 fusion protein (Homo sapiens, UniProt P22607); assay: NIH/3T3 FGFR3 WT-TACC3 cell proliferation assay; assay type: cell-based; settings: 72-hr incubation, CellTiter Glo, starting with 10 μM; read-out: NIH/3T3 FGFR3 WT-TACC3 CTG (IC50)
T4 construct: NIH/3T3 FGFR3 WT-TACC3 CTG (IC50); other: 72-hr incubation, CellTiter Glo, starting with 10 μM; fused on or other part: Q9Y6A5 (Transforming acidic coiled-coil-containing protein 3)
T4 sequence (P22607 whole entry, change not shown, the tested form may be a part): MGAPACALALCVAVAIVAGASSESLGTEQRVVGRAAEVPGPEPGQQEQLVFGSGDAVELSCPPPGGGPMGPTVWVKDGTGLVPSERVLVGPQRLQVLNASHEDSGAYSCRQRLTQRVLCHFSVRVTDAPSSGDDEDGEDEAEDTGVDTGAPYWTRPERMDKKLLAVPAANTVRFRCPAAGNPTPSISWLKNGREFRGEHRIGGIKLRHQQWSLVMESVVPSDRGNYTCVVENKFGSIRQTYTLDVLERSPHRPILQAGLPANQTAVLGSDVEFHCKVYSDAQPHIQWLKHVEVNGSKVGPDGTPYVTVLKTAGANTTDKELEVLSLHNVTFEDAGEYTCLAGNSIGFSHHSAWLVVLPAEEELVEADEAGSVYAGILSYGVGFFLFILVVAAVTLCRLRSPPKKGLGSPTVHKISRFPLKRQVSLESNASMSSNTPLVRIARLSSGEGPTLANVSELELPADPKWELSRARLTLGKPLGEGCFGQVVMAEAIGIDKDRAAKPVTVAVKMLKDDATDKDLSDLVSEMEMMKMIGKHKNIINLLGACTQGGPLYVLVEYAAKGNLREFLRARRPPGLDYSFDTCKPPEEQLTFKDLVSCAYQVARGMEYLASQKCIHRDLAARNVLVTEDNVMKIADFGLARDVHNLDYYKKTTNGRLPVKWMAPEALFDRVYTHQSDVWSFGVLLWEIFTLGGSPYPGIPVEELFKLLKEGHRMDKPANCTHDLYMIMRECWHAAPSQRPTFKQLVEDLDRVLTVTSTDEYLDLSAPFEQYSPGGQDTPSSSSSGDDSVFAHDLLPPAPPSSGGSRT
Procedure, shortened: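 Cells seeded overnight, then exposed 72 h at 37 °C to compound in 9-point 4-fold dilutions from 10 μM (0.1% DMSO final). Viability read by CellTiter-Glo luminescence, normalized to survival %; IC50, pIC50 and Hill slope from concentration-response fit.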

[6] = target: T5, NIH/3T3 cells overexpressing FGFR3 V555M-TACC3 fusion protein (Homo sapiens, UniProt P22607, V555M, cells depend on it); assay: NIH/3T3 FGFR3 V555M-TACC3 cell proliferation assay; assay type: cell-based; settings: 72-hr incubation, CellTiter Glo, starting with 10 μM; read-out: NIH/3T3 FGFR3 V555M-TACC3 CTG (IC50)
T5 construct: NIH/3T3 FGFR3 V555M-TACC3 CTG (IC50); other: 72-hr incubation, CellTiter Glo, starting with 10 μM; fused on or other part: Q9Y6A5 (Transforming acidic coiled-coil-containing protein 3)
T5 sequence (P22607 whole entry V555M, the tested form may be a part): as the sequence (P22607 whole entry, change not shown, the tested form may be a part) above, with V555M counted along it
Procedure, shortened: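 NIH/3T3 cells overexpressing FGFR3 V555M-TACC3 fusion, 30,000/well in DMEM/10% FBS, treated for 72 h at 37 °C with 9 doses (4× dilutions from 10 μM top, 0.1% DMSO). CellTiter-Glo luminescence normalised to % survival; IC50, pIC50 and Hill slope from concentration-response fits.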

CCC(Nc1c(-c2nc3ccc(N4CCOCC4)cc3[nH]2)c(=O)[nH]c2ccccc12)c1ncccn1 (single isomer, unassigned) [Compound 30a, (S*)-3-(6-morpholino-1H-benzo[d]imidazol-2-yl)-4-((1-(pyrimidin-2-yl)propyl)amino)quinolin-2(1H)-one]
IC50 [1]: 0.281 nM | IC50 [2]: 0.177 nM | IC50 [3]: 0.617 nM | IC50 [4]: 2910 nM | GI50 [5]: 7.19 nM | GI50 [6]: 5.34 nM

CC(C)C(Nc1c(-c2nc3ccc(N4CCOCC4)cc3[nH]2)c(=O)[nH]c2ccccc12)c1ncccn1 (single isomer, unassigned) [Compound 32a, (S*)-4-((2-methyl-1-(pyrimidin-2-yl)propyl)amino)-3-(6-morpholino-1H-benzo[d]imidazol-2-yl)quinolin-2(1H)-one]
IC50 [1]: 0.368 nM | IC50 [2]: 0.171 nM | IC50 [3]: 0.364 nM | IC50 [4]: 2610 nM | GI50 [5]: 16.5 nM | GI50 [6]: 5.75 nM

O=c1[nH]c2ccccc2c(NC(c2ncccn2)C2CC2)c1-c1nc2ccc(N3CCOCC3)cc2[nH]1 (single isomer, unassigned) [Compound 33a, (S*)-4-((cyclopropyl(pyrimidin-2-yl)methyl)amino)-3-(6-morpholino-1H-benzo[d]imidazol-2-yl)quinolin-2(1H)-one]
IC50 [1]: 0.595 nM | IC50 [2]: 0.237 nM | IC50 [3]: 0.63 nM | IC50 [4]: 1080 nM | GI50 [5]: 9.24 nM | GI50 [6]: 6.41 nM

C[C@H](Nc1c(-c2nc3ccc(N4CCN(C)CC4)cc3[nH]2)c(=O)[nH]c2cc(F)ccc12)c1ccccn1 [Compound 63, (S)-7-Fluoro-3-(6-(4-methylpiperazin-1-yl)-1H-benzo[d]imidazol-2-yl)-4-((1-(pyridin-2-yl)ethyl)amino)quinolin-2(1H)-one]
IC50 [1]: 0.709 nM | IC50 [2]: 1.65 nM | IC50 [3]: 1.39 nM | IC50 [4]: 637 nM | GI50 [6]: 51.4 nM

C[C@H](Nc1c(-c2nc3ccc(N4CCN(C)CC4)cc3[nH]2)c(=O)[nH]c2ccccc12)c1ccccn1 [Compound 65, (S)-3-(6-(4-methylpiperazin-1-yl)-1H-benzo[d]imidazol-2-yl)-4-((1-(pyridin-2-yl)-ethyl)amino)quinolin-2(1H)-one]
IC50 [1]: 0.377 nM | IC50 [2]: 0.193 nM | IC50 [3]: 0.246 nM | IC50 [4]: 165 nM | GI50 [5]: 5.93 nM | GI50 [6]: 8.19 nM
